Data: patent US10941138B2, “Quinoline and isoquinoline derivatives for treating pain and pain related conditions” (ESTEVE PHARMACEUTICALS, S.A., priority 2016, dated 2021)

biological target: human α2δ-1 subunit of Cav2.2 calcium channel (Homo sapiens (Human), UniProt P54289); experiment: Binding assay to human α2δ-1 subunit of Cav2.2 calcium channel ([3H]-Gabapentin); details: Table 1, human α2δ-1 enriched membranes, read-out: Ki (nM) alpha2delta Hum
Protocol: Binding Assay to Human α2δ-1 Subunit of Cav2.2 Calcium Channel.
Human α2δ-1 enriched membranes (2.5 μg) were incubated with 15 nM of radiolabeled [3H]-Gabapentin in assay buffer containing Hepes-KOH 10 mM, pH 7.4.
NSB (non specific binding) was measured by adding 10 μM pregabalin. The binding of the test compound was measured at five different concentrations. After 60 min incubation at 27° C., binding reaction was terminated by filtering through Multiscreen GF/C (Millipore) presoaked in 0.5% polyethyleneimine in Vacuum Manifold Station, followed by 3 washes with ice-cold filtration buffer containing 50 mM Tris-HCl, pH 7.4. Filter plates were dried at 60° C. for 1 h and 30 μl of scintillation cocktail were added to each well before radioactivity reading.
(§1) Readings were performed in a Trilux 1450 Microbeta radioactive counter (Perkin Elmer).

Sequence of human α2δ-1 subunit of Cav2.2 calcium channel (P54289 25-1103): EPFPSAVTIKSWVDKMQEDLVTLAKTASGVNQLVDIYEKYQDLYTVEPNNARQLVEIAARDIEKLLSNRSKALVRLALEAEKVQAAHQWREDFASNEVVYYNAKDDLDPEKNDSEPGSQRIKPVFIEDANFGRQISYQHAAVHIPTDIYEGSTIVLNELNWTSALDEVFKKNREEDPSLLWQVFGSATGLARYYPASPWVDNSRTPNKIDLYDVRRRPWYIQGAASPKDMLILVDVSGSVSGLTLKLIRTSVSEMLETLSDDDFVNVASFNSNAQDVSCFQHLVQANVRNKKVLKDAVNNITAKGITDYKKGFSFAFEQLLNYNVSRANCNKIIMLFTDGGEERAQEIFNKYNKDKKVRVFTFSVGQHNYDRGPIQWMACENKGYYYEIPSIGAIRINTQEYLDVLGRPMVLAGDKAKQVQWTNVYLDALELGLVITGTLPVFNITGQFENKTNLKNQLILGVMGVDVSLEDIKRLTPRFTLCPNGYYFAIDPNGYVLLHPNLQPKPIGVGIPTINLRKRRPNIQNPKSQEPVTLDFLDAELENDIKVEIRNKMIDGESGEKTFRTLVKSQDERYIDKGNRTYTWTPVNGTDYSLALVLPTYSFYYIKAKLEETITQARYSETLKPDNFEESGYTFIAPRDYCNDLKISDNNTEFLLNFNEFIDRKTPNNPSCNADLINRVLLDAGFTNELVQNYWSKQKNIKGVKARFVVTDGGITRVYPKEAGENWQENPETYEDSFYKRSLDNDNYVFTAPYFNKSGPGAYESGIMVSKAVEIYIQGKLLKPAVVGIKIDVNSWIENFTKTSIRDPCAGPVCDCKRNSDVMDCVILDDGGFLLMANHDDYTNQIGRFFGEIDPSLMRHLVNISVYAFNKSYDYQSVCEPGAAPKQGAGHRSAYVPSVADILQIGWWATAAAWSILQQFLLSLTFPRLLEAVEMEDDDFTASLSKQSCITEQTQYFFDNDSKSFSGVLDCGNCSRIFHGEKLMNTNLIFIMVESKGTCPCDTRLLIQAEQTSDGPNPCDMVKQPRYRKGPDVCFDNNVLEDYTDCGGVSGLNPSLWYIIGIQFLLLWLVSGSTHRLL

Row | SMILES | Ki [nM]
1 | CNCC[C@@H](Oc1cccc2cnccc12)c1cccs1 [Example 14, (R)-3-(isoquinolin-5-yloxy)-N-methyl-3-(thiophen-2-yl)propan-1-amine] | 100 to 500
2 | CNCC[C@@H](Oc1cccc2ncccc12)c1cccs1 [Example 15, (R)-N-methyl-3-(quinolin-5-yloxy)-3-(thiophen-2-yl)propan-1-amine] | 100 to 500
3 | CNCCC(Oc1cccc2cnccc12)c1cccnc1 (stereo not drawn) [Example 17, 3-(isoquinolin-5-yloxy)-N-methyl-3-(pyridin-3-yl)propan-1-amine] | ≥ 3000
4 | CNCCC(Oc1cccc2cnccc12)C1CCOCC1 (stereo not drawn) [Example 18, 3-(isoquinolin-5-yloxy)-N-methyl-3-(tetrahydro-2H-pyran-4-yl)propan-1-amine] | ≥ 3000
5 | CNCCC(Oc1cccc2cnccc12)c1ccncc1 (stereo not drawn) [Example 25, 3-(isoquinolin-5-yloxy)-N-methyl-3-(pyridin-4-yl)propan-1-amine] | ≥ 3000
6 | CNCCC(Oc1cccc2ccncc12)c1cc(C(F)(F)F)ccn1 (stereo not drawn) [Example 30, 3-(isoquinolin-8-yloxy)-N-methyl-3-(4-(trifluoromethyl)pyridin-2-yl)propan-1-amine] | ≥ 3000
7 | CNCCC(Oc1cccc2ncccc12)c1ccc(Cl)s1 (stereo not drawn) [Example 41, 3-(5-chlorothiophen-2-yl)-N-methyl-3-(quinolin-5-yloxy)propan-1-amine] | 100 to 500
8 | CNCCC(Oc1cccc2ncccc12)c1ccc(F)s1 (stereo not drawn) [Example 42, 3-(5-fluorothiophen-2-yl)-N-methyl-3-(quinolin-5-yloxy)propan-1-amine] | < 100
9 | NCCC(Oc1cccc2cnccc12)c1cccs1 (stereo not drawn) [Example 44, 3-(isoquinolin-5-yloxy)-3-(thiophen-2-yl)propan-1-amine] | ≥ 3000
10 | CNCCC(Oc1cccc2cnccc12)c1ccc(F)s1 (stereo not drawn) [Example 45, 3-(5-fluorothiophen-2-yl)-3-(isoquinolin-5-yloxy)-N-methylpropan-1-amine] | < 100
11 | CNCCC(Oc1cccc2cnccc12)c1sccc1F (stereo not drawn) [Example 46, 3-(3-fluorothiophen-2-yl)-3-(isoquinolin-5-yloxy)-N-methylpropan-1-amine] | 100 to 500
12 | CNCCC(Oc1cccc2ccncc12)c1sccc1F (stereo not drawn) [Example 47, 3-(3-fluorothiophen-2-yl)-3-(isoquinolin-8-yloxy)-N-methylpropan-1-amine] | 100 to 500
13 | CNCCC(Oc1cccc2ncccc12)c1sccc1F (stereo not drawn) [Example 48, 3-(3-fluorothiophen-2-yl)-N-methyl-3-(quinolin-5-yloxy)propan-1-amine] | 100 to 500
14 | CNCCC(Oc1cccc2ccncc12)c1ccc(F)s1 (stereo not drawn) [Example 49, 3-(5-fluorothiophen-2-yl)-3-(isoquinolin-8-yloxy)-N-methylpropan-1-amine] | 100 to 500
15 | CNCC[C@H](Oc1cccc2cnccc12)c1ccc(F)s1 [Example 50, (S)-3-(5-fluorothiophen-2-yl)-3-(isoquinolin-5-yloxy)-N-methylpropan-1-amine] | 500 to 3000
16 | CNCC[C@H](Oc1cccc2ncccc12)c1ccc(F)s1 [Example 51, (S)-3-(5-fluorothiophen-2-yl)-N-methyl-3-(quinolin-5-yloxy)propan-1-amine] | 100 to 500
17 | CNCC[C@@H](Oc1cccc2cnccc12)c1ccc(F)s1 [Example 52, (R)-3-(5-fluorothiophen-2-yl)-3-(isoquinolin-5-yloxy)-N-methylpropan-1-amine] | < 100

same assay, conditions: Table 2, dual compounds, human α2δ-1 enriched membranes, read-out: Ki (nM) alpha2delta Hum

Row | SMILES | Ki [nM]
18 | CNCC[C@@H](Oc1cccc2cnccc12)c1cccs1 [Example 14, (R)-3-(isoquinolin-5-yloxy)-N-methyl-3-(thiophen-2-yl)propan-1-amine] | 100 to 500
19 | CNCC[C@@H](Oc1cccc2ncccc12)c1cccs1 [Example 15, (R)-N-methyl-3-(quinolin-5-yloxy)-3-(thiophen-2-yl)propan-1-amine] | 100 to 500
20 | CNCCC(Oc1cccc2cnccc12)c1cccnc1 (stereo not drawn) [Example 17, 3-(isoquinolin-5-yloxy)-N-methyl-3-(pyridin-3-yl)propan-1-amine] | ≥ 3000
21 | CNCCC(Oc1cccc2cnccc12)C1CCOCC1 (stereo not drawn) [Example 18, 3-(isoquinolin-5-yloxy)-N-methyl-3-(tetrahydro-2H-pyran-4-yl)propan-1-amine] | ≥ 3000
22 | CNCCC(Oc1cccc2cnccc12)c1ccncc1 (stereo not drawn) [Example 25, 3-(isoquinolin-5-yloxy)-N-methyl-3-(pyridin-4-yl)propan-1-amine] | ≥ 3000
23 | CNCCC(Oc1cccc2ccncc12)c1cc(C(F)(F)F)ccn1 (stereo not drawn) [Example 30, 3-(isoquinolin-8-yloxy)-N-methyl-3-(4-(trifluoromethyl)pyridin-2-yl)propan-1-amine] | ≥ 3000
24 | CNCCC(Oc1cccc2ncccc12)c1ccc(Cl)s1 (stereo not drawn) [Example 41, 3-(5-chlorothiophen-2-yl)-N-methyl-3-(quinolin-5-yloxy)propan-1-amine] | 100 to 500
25 | CNCCC(Oc1cccc2ncccc12)c1ccc(F)s1 (stereo not drawn) [Example 42, 3-(5-fluorothiophen-2-yl)-N-methyl-3-(quinolin-5-yloxy)propan-1-amine] | < 100
26 | NCCC(Oc1cccc2cnccc12)c1cccs1 (stereo not drawn) [Example 44, 3-(isoquinolin-5-yloxy)-3-(thiophen-2-yl)propan-1-amine] | ≥ 3000
27 | CNCCC(Oc1cccc2cnccc12)c1ccc(F)s1 (stereo not drawn) [Example 45, 3-(5-fluorothiophen-2-yl)-3-(isoquinolin-5-yloxy)-N-methylpropan-1-amine] | < 100
28 | CNCCC(Oc1cccc2cnccc12)c1sccc1F (stereo not drawn) [Example 46, 3-(3-fluorothiophen-2-yl)-3-(isoquinolin-5-yloxy)-N-methylpropan-1-amine] | 100 to 500
29 | CNCCC(Oc1cccc2ccncc12)c1sccc1F (stereo not drawn) [Example 47, 3-(3-fluorothiophen-2-yl)-3-(isoquinolin-8-yloxy)-N-methylpropan-1-amine] | 100 to 500
30 | CNCCC(Oc1cccc2ncccc12)c1sccc1F (stereo not drawn) [Example 48, 3-(3-fluorothiophen-2-yl)-N-methyl-3-(quinolin-5-yloxy)propan-1-amine] | 100 to 500
31 | CNCCC(Oc1cccc2ccncc12)c1ccc(F)s1 (stereo not drawn) [Example 49, 3-(5-fluorothiophen-2-yl)-3-(isoquinolin-8-yloxy)-N-methylpropan-1-amine] | 100 to 500
32 | CNCC[C@H](Oc1cccc2cnccc12)c1ccc(F)s1 [Example 50, (S)-3-(5-fluorothiophen-2-yl)-3-(isoquinolin-5-yloxy)-N-methylpropan-1-amine] | 500 to 3000
33 | CNCC[C@H](Oc1cccc2ncccc12)c1ccc(F)s1 [Example 51, (S)-3-(5-fluorothiophen-2-yl)-N-methyl-3-(quinolin-5-yloxy)propan-1-amine] | 100 to 500
34 | CNCC[C@@H](Oc1cccc2cnccc12)c1ccc(F)s1 [Example 52, (R)-3-(5-fluorothiophen-2-yl)-3-(isoquinolin-5-yloxy)-N-methylpropan-1-amine] | < 100

biological target: human norepinephrine transporter (NET) (Homo sapiens (Human), UniProt P23975); experiment: Binding assay to human norepinephrine transporter (NET) ([3H]-Nisoxetin); details: Table 2, dual compounds, human NET enriched membranes, read-out: Ki (nM) NET Hum
Sequence (P23975 whole entry): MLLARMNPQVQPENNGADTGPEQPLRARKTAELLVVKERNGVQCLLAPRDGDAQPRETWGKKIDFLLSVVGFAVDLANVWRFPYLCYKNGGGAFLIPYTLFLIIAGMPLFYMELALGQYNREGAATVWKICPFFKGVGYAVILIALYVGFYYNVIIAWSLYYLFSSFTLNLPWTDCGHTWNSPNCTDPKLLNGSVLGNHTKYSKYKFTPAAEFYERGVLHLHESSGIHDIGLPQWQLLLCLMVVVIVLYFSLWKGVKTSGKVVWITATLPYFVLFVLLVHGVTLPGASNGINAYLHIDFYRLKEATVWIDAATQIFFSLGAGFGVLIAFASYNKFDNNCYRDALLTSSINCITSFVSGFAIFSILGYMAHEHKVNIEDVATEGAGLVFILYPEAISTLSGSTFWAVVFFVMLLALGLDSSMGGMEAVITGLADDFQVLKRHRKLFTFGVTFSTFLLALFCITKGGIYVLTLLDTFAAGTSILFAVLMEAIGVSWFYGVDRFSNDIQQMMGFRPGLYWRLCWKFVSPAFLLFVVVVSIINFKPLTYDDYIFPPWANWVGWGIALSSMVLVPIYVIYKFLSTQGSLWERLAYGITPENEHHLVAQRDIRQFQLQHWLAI
Protocol: Binding Assay to Human Norepinephrine Transporter (NET).
Human norepinephrine transporter (NET) enriched membranes (5 μg) were incubated with 5 nM of radiolabeled [3H]-Nisoxetin in assay buffer containing 50 mM Tris-HCl, 120 mM NaCl, 5 mM KCl, pH 7.4.
NSB (non specific binding) was measured by adding desipramine 10 μM. The binding of the test compound was measured at five different concentrations. After 60 min incubation at 4° C., binding reaction was terminated by filtering through Multiscreen GF/C (Millipore) presoaked in 0.5% polyethyleneimine in Vacuum Manifold Station, followed by 3 washes with ice-cold filtration buffer containing 50 mM Tris-HCl, 0.9% NaCl, pH 7.4.
Filter plates were dried at 60° C. for 1 h and 30 μl of scintillation cocktail were added to each well before radioactivity reading.
as §1

Row | SMILES | Ki [nM]
35 | CNCC[C@@H](Oc1cccc2cnccc12)c1cccs1 [Example 14, (R)-3-(isoquinolin-5-yloxy)-N-methyl-3-(thiophen-2-yl)propan-1-amine] | 100 to 500
36 | CNCC[C@@H](Oc1cccc2ncccc12)c1cccs1 [Example 15, (R)-N-methyl-3-(quinolin-5-yloxy)-3-(thiophen-2-yl)propan-1-amine] | 100 to 500
37 | CNCCC(Oc1cccc2cnccc12)c1cccnc1 (stereo not drawn) [Example 17, 3-(isoquinolin-5-yloxy)-N-methyl-3-(pyridin-3-yl)propan-1-amine] | 100 to 500
38 | CNCCC(Oc1cccc2cnccc12)C1CCOCC1 (stereo not drawn) [Example 18, 3-(isoquinolin-5-yloxy)-N-methyl-3-(tetrahydro-2H-pyran-4-yl)propan-1-amine] | 100 to 500
39 | CNCCC(Oc1cccc2cnccc12)c1ccncc1 (stereo not drawn) [Example 25, 3-(isoquinolin-5-yloxy)-N-methyl-3-(pyridin-4-yl)propan-1-amine] | 100 to 500
40 | CNCCC(Oc1cccc2ccncc12)c1cc(C(F)(F)F)ccn1 (stereo not drawn) [Example 30, 3-(isoquinolin-8-yloxy)-N-methyl-3-(4-(trifluoromethyl)pyridin-2-yl)propan-1-amine] | 500 to 1000
41 | CNCCC(Oc1cccc2ncccc12)c1ccc(Cl)s1 (stereo not drawn) [Example 41, 3-(5-chlorothiophen-2-yl)-N-methyl-3-(quinolin-5-yloxy)propan-1-amine] | 100 to 500
42 | CNCCC(Oc1cccc2ncccc12)c1ccc(F)s1 (stereo not drawn) [Example 42, 3-(5-fluorothiophen-2-yl)-N-methyl-3-(quinolin-5-yloxy)propan-1-amine] | 100 to 500
43 | NCCC(Oc1cccc2cnccc12)c1cccs1 (stereo not drawn) [Example 44, 3-(isoquinolin-5-yloxy)-3-(thiophen-2-yl)propan-1-amine] | 100 to 500
44 | CNCCC(Oc1cccc2cnccc12)c1ccc(F)s1 (stereo not drawn) [Example 45, 3-(5-fluorothiophen-2-yl)-3-(isoquinolin-5-yloxy)-N-methylpropan-1-amine] | 100 to 500
45 | CNCCC(Oc1cccc2cnccc12)c1sccc1F (stereo not drawn) [Example 46, 3-(3-fluorothiophen-2-yl)-3-(isoquinolin-5-yloxy)-N-methylpropan-1-amine] | < 100
46 | CNCCC(Oc1cccc2ccncc12)c1sccc1F (stereo not drawn) [Example 47, 3-(3-fluorothiophen-2-yl)-3-(isoquinolin-8-yloxy)-N-methylpropan-1-amine] | 100 to 500
47 | CNCCC(Oc1cccc2ncccc12)c1sccc1F (stereo not drawn) [Example 48, 3-(3-fluorothiophen-2-yl)-N-methyl-3-(quinolin-5-yloxy)propan-1-amine] | 100 to 500
48 | CNCCC(Oc1cccc2ccncc12)c1ccc(F)s1 (stereo not drawn) [Example 49, 3-(5-fluorothiophen-2-yl)-3-(isoquinolin-8-yloxy)-N-methylpropan-1-amine] | 100 to 500
49 | CNCC[C@H](Oc1cccc2cnccc12)c1ccc(F)s1 [Example 50, (S)-3-(5-fluorothiophen-2-yl)-3-(isoquinolin-5-yloxy)-N-methylpropan-1-amine] | < 100
50 | CNCC[C@H](Oc1cccc2ncccc12)c1ccc(F)s1 [Example 51, (S)-3-(5-fluorothiophen-2-yl)-N-methyl-3-(quinolin-5-yloxy)propan-1-amine] | 100 to 500
51 | CNCC[C@@H](Oc1cccc2cnccc12)c1ccc(F)s1 [Example 52, (R)-3-(5-fluorothiophen-2-yl)-3-(isoquinolin-5-yloxy)-N-methylpropan-1-amine] | 100 to 500
